{"source": "patent US20110230659A1", "about": "“CYCLOBUTYL PURINE DERIVATIVE, ANGIOGENESIS PROMOTING AGENT, LUMEN FORMATION PROMOTING AGENT, NEUROCYTE GROWTH PROMOTING AGENT, AND DRUG” (NATIONAL UNIVERSITY CORPORATION KAGAWA UNIVERSITY, priority 2008, published 2011)", "key": {"[1]": {"system": "human umbilical vein endothelial cells (HUVEC) and normal human dermal fibroblasts", "assay": "Measurement of lumen formation (angiogenesis kit, CD31 immunostaining, lumen area)", "type": "cell-based", "experimental": "The measurement of lumen formation was carried out in the following manner using commercially available angiogenesis kits (Kurabo), each including human umbilical vein endothelial cells (HUVEC) and normal human dermal fibroblasts. First, sample solutions were prepared by dissolving 2-Cl—C.OXT-A in physiological saline so as to achieve predetermined concentrations (1, 10, 100, 500 μmol/l, 1, 5, 10, 50 mmol/l). Then, the sample solutions containing 2-Cl—C.OXT-A at the predetermined concentrations respectively were added to media provided in the kits so that their concentrations became 10 v/v %. Thus, lumen formation media were prepared. The final concentrations of 2-Cl—C.OXT-A in the lumen formation media were 0.1, 1, 10, 50, 100, 500 μmol/l, 1 and 5 mmol/1.\nUsing each of the lumen formation media, the human umbilical vein endothelial cells (HUVEC) and the normal human dermal fibroblasts were cultured for 10 days. After the culture, the human umbilical vein endothelial cells (HUVEC) were immunostained using a lumen staining kit (for CD31 staining, Kurabo). Then, using NIH Image (image processing and analysis software), the area of a portion stained by the immunostaining (lumen area) was measured. As a control, a medium provided in the kit was used instead of the lumen formation medium to carry out the culture, and the cells were immunostained and the lumen area was measured in the same manner as in the above. Then, using the following equation (II), the relative value of lumen area in the culture using each of the lumen formation media containing 2-Cl—C.OXT-A at the predetermined concentrations was calculated.\nIn the present example, the relative value of lumen area was calculated in the same manner as in the lumen formation measurement in Example 1, except that the measurement was carried out with respect to four groups respectively using media Nos. 5 to 8 prepared by adding 2-Cl—C.OXT-A and PD98059 to media provided in the above-described angiogenesis kits (Kurabo) so that their concentrations became as shown in Table 2 below. In the group using the medium No. 7, the culture was conducted using the medium No. 7 from the first to third days of the culture and the medium No. 5 from the fourth to tenth days of the culture, and in the group using the medium No. 8, the culture was conducted using the medium No. 8 from the first to third days of the culture and the medium No. 6 from the fourth to tenth days of the culture.\nIn the present example, the relative value of lumen area was calculated in the same manner as in the lumen formation measurement in Example 1, except that the measurement was carried out with respect to six groups respectively using media Nos. 15 to 20 prepared by adding 2-Cl—C.OXT-A, VEGF (positive control), and SU5416 to media provided in the above-described angiogenesis kit (Kurabo) so that their concentrations became as shown in Table 4 below. In the group using the medium No. 16, the culture was conducted using the medium No. 16 from the first to third days of the culture and the medium No. 15 from the fourth to tenth days of the culture; in the group using the medium No. 18, the culture was conducted using the medium No. 18 from the first to third days of the culture and the medium No. 17 from the fourth to tenth days of the culture; and in the group using the medium No. 20, the culture was conducted using the medium No. 20 from the first to third days of the culture and the medium No. 19 from the fourth to tenth days of the culture."}, "p38": {"system": "p38", "assay": "p38 activation (phosphorylation) immunoblot in HUVEC", "type": "cell-based, human", "settings": "100 μmol/l; 0 to 60 minutes", "experimental": "First, to a HuMedia-EB2 medium (Kurabo) to which 2 v/v % inactivated fetal bovine serum (FBS) had been added, 2-Cl—C.OXT-A was added so that its concentration became 100 μmol/l. Thus, a medium was prepared. Using the medium, human umbilical vein endothelial cells (HUVEC) were cultured for predetermined periods (0, 10, 20, 30, 45, and 60 minutes).\nAfter the culture, cells were collected. The collected cells were lysed by adding a cell lysis buffer (SDS-lysis buffer) thereto, and heat-denatured at 95° C. for 5 minutes. The solubilized protein in an amount corresponding to 5 v/v % of the heat-denatured cell lysate was subjected to electrophoresis using 10% SDS-polyacrylamide gel, whereby the solubilized protein was transferred onto a nitrocellulose membrane (Amersham Biosciences). […]\nThe enzymes were visualized with SuperSignal (registered trademark) West Pico Chemiluminescent Substrate (Pierce), and detected by being exposed to RX—U X-ray film (FUJIFILM Corporation). From the detected bands, the respective phosphoenzymes and total enzymes were quantified using an NIH image software. Furthermore, the relative value (−fold) of each phosphoenzyme was calculated by substituting the measured value of the phosphoenzyme into the following equation (III)."}, "[2]": {"system": "cornea of Japanese white rabbit", "assay": "Angiogenesis test, rabbit cornea assay", "type": "in vivo", "settings": "16 mmol/l in 30 μl of physiological saline injected to cornea, observed after 7 days", "experimental": "In the present example, the effect of 2-Cl—C.OXT-A of Example 1 on angiogenesis was examined by a rabbit cornea assay.\nA sample was prepared by adding 2-Cl—C.OXT-A to 30 μl of physiological saline so that its concentration became 16 mmol/l. The sample was injected to a cornea of Japanese white rabbit (male, 2.8 kg) under sevoflurane anesthesia. The cornea was observed after a lapse of 7 days."}, "ERK": {"system": "ERK", "assay": "ERK activation (phosphorylation) immunoblot in HUVEC", "type": "cell-based, human", "settings": "Example 8, medium No. 11: 2-Cl—C.OXT-A 100 μmol/l"}}, "data": [{"smiles": "Nc1nc(Cl)nc2c1ncn2C1CC(CO)C1CO", "note": "(stereo not drawn) [2-Cl—C.OXT-A, 6-amino-2-chloro-9-[trans-trans-2,3-bis(hydroxymethyl)cyclobutyl]purine]", "values": [{"measurement": "relative value of lumen area compared with control", "setting": "[1]; Example 7, medium No. 6: only 2-Cl—C.OXT-A 10 μmol/l", "result": "about 3 fold"}, {"measurement": "lumen area", "setting": "[1]; Example 9, medium No. 17: 2-Cl—C.OXT-A 10 μmol/l", "result": "increased markedly"}, {"measurement": "relative value of lumen area", "setting": "[1]; final concentration 100 nmol/l to 1 mmol/l, versus control", "result": "larger than that of the control"}, {"measurement": "stained area (lumen formation, immunostaining photographs)", "setting": "[1]; final concentration 10 μmol/l to 1 mmol/l, 10 days, versus control", "result": "larger than that in the control"}, {"measurement": "relative value of lumen area", "setting": "[1]; final concentration 100 μmol/l, highest activity", "result": 3.8}, {"measurement": "lumen formation promoting-activity compared with VEGF (relative value of lumen area)", "setting": "[1]; final concentration 10 to 500 μmol/l, VEGF 10 ng/ml", "result": "higher than that in Comparative Example 7"}, {"measurement": "lumen formation promoting-activity compared with VEGF (photographs)", "setting": "[1]; final concentrations 10 and 100 μmol/l, VEGF 10 ng/ml", "result": "higher than that in Comparative Example 7"}, {"measurement": "amount of pp 38", "setting": "p38", "result": "not changed"}, {"measurement": "angiogenesis in the cornea", "setting": "[2]", "result": "considerable angiogenesis"}, {"measurement": "pERK", "setting": "ERK", "result": "increased"}]}]}
